# Laboratory results: patent US20170362243A1, “BIARYLETHER IMIDAZOPYRAZINE BTK INHIBITORS” (MERCK SHARP & DOHME CORP., priority 2014, published 2017)
# Target: T1, BTK enzyme (recombinant full-length BTK, hBTK) (Homo sapiens, UniProt Q06187)
# T1 construct: recombinant protein from baculovirus-transfected Sf9 cells: full-length BTK, 6HIS-tag cleaved; 6HIS (cleaved yes); made in house; host or cells: baculovirus-transfected Sf9 cells
# Assay: Btk enzyme activity assay, LANCE TR-FRET
# Format: biochemical
# Conditions: 50 pM hBTK, 2 μM biotin-A5-peptide, 25 μM ATP, 60 minute compound & enzyme incubation, read-out: BTK binding IC50
# Protocol: BTK enzymatic activity was determined with the LANCE (Lanthanide Chelate Excite) TR-FRET (Time-resolved fluorescence resonance energy transfer) assay. In this assay, the potency (IC50) of each compound was determined from an eleven point (1:3 serial dilution; final compound concentration range in assay from 1 μM to 0.017 nM) titration curve using the following outlined procedure. To each well of a black non-binding surface Corning 384-well microplate (Corning Catalog #3820), 5 nL of compound (2000 fold dilution in final assay volume of 10 μL) was dispensed, followed by the addition of 7.5 μL of 1× kinase buffer (50 mM Hepes 7.5, 10 mM MgCl2, 0.01% Brij-35, 1 mM EGTA, 0.05% BSA & 1 mM DTT) containing 5.09 pg/μL (66.67 pM) of BTK enzyme (recombinant protein from baculovirus-transfected Sf9 cells: full-length BTK, 6HIS-tag cleaved). Following a 60 minute compound & enzyme incubation, each reaction was initiated by the addition of 2.5 μL 1× kinase buffer containing 8 μM biotinylated “A5” peptide (Biotin-EQEDEPEGDYFEWLE-NH2) (SEQ.ID.NO.: 1), and 100 μM ATP. The final reaction in each well of 10 μL consists of 50 pM hBTK, 2 μM biotin-A5-peptide, and 25 μM ATP. Phosphorylation reactions were allowed to proceed for 120 minutes. Reactions were immediately quenched by the addition of 20 uL of 1× quench buffer (15 mM EDTA, 25 mM Hepes 7.3, and 0.1% Triton X-100) containing detection reagents (0.626 nM of LANCE-Eu-W1024-anti-phosphoTyrosine antibody, PerkinElmer and 86.8 nM of Streptavidin-conjugated Dylight 650, Dyomics/ThermoFisher Scientific). After 60 minutes incubation with detection reagents, reaction plates were read on a PerkinElmer EnVision plate reader using standard TR-FRET protocol. Briefly, excitation of donor molecules (Eu-chelate:anti-phospho-antibody) with a laser light source at 337 nm produces energy that can be transferred to Dylight-650 acceptor molecules if this donor:acceptor pair is within close proximity. Fluorescence intensity at both 665 nm (acceptor) and 615 nm (donor) are measured and a TR-FRET ratio calculated for each well (acceptor intensity/donor intensity). IC50 values were determined by 4 parameter robust fit of TR-FRET ratio values vs. (Log10) compound concentrations.
# The following Table 3 provides specific IC50 values for all the examples. The IC50 values set forth below were determined according to Assay method described above.
# T1 sequence (Q06187 whole entry): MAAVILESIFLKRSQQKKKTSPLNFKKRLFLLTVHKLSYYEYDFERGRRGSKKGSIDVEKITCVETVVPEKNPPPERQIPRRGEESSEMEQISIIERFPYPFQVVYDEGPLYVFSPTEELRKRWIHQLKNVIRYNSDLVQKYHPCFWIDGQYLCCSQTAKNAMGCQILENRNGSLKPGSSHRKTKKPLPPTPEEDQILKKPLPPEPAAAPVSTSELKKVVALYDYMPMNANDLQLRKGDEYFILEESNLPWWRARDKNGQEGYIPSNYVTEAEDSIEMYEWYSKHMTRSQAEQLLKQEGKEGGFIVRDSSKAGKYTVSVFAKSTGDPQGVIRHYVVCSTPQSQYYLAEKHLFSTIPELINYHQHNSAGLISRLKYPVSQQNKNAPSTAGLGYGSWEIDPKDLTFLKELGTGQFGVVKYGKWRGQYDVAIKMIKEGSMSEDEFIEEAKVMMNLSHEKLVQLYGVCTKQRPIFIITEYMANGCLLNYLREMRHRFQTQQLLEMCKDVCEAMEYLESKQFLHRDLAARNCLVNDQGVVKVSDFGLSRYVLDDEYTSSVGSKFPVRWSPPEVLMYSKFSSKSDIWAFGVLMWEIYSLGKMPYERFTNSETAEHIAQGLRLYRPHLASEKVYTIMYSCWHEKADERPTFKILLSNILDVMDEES
row,Structure (SMILES),IC50
1,"Nc1nccn2c([C@@H]3CCC[C@@H](C(=O)O)C3)nc(-c3ccc(Oc4ccccc4)cc3)c12 (relative stereo) [Example 30, Trans-3-(8-amino-1-(4-phenoxyphenyl)imidazo[1,5-a]pyrazin-3-yl)cyclohexanecarboxylic acid]",0.18 nM
2,"Nc1nccn2c(C3CCC(C(=O)O)O3)nc(-c3ccc(Oc4ccccc4)cc3)c12 (single isomer, unassigned) [Example 26, 5-[8-amino-1-(4-phenoxyphenyl)imidazo[1,5-a]pyrazin-3-yl]tetrahydrofuran-2-carboxylic acid (E1)]",12.5 nM
3,"Nc1nccn2c(C3CCC(C(=O)O)O3)nc(-c3ccc(Oc4ccccc4)cc3)c12 (single isomer, unassigned) [Example 27, 5-[8-amino-1-(4-phenoxyphenyl)imidazo[1,5-a]pyrazin-3-yl]tetrahydrofuran-2-carboxylic acid (E2)]",12.5 nM
4,"CC1(C(=O)O)CCC(C)(c2nc(-c3ccc(Oc4ccccc4)cc3)c3c(N)nccn23)C1 (single isomer, unassigned) [Example 28, 3-[8-amino-1-(4-phenoxyphenyl)imidazo[1,5-a]pyrazin-3-yl]-1,3-dimethylcyclo-pentanecarboxylic acid (E1)]",0.23 nM
5,"CC1(C(=O)O)CCC(C)(c2nc(-c3ccc(Oc4ccccc4)cc3)c3c(N)nccn23)C1 (single isomer, unassigned) [Example 29, 3-[8-amino-1-(4-phenoxyphenyl)imidazo[1,5-a]pyrazin-3-yl]-1,3-dimethylcyclo-pentanecarboxylic acid (E2)]",1.3 nM
6,"CC(C)[C@@]1(C(=O)O)CCC(c2nc(-c3ccc(Oc4cccc(F)c4)cc3)c3c(N)nccn23)C1 (stereo in doubt) [Example 4, (1R,3S)-3-{8-amino-1-[4-(3-fluorophenoxy)phenyl]imidazo[1,5-a]pyrazin-3-yl}-1-(1-methylethyl)cyclo-pentanecarboxylic acid]",4.4 nM
7,"CC(C)C1(C(=O)O)CC[C@H](c2nc(-c3ccc(Oc4cccc(F)c4)cc3)c3c(N)nccn23)C1 (stereo in doubt) [Example 5, (1R,3S)-3-{8-amino-1-[4-(3-fluorophenoxy)phenyl]imidazo[1,5-a]pyrazin-3-yl}-1-(1-methylethyl)cyclo-pentanecarboxylic acid]",1.4 nM
8,"Nc1nccn2c(N3CCC[C@H](C(=O)O)C3)nc(-c3ccc(Oc4ccccc4)cc3)c12 [Example 1, (S)-1-(8-amino-1-(4-phenoxyphenyl)imidazo[1,5-a]pyrazin-3-yl)piperidine-3-carboxylic acid]",2.7 nM
9,"CC(C)[C@]1(C(=O)O)CC[C@@H](c2nc(-c3ccc(Oc4cccc(F)c4)cc3)c3c(N)nccn23)C1 [Example 2, (1S,3R)-3-{8-amino-1-[4-(3-fluorophenoxy)phenyl]imidazo[1,5-a]pyrazin-3-yl}-1-(1-methylethyl)cyclo-pentanecarboxylic acid]",2 nM
10,"CC(C)[C@@]1(C(=O)O)CC[C@H](c2nc(-c3ccc(Oc4cccc(F)c4)cc3)c3c(N)nccn23)C1 [Example 3, (1R,3S)-3-{8-amino-1-[4-(3-fluorophenoxy)phenyl]imidazo[1,5-a]pyrazin-3-yl}-1-(1-methylethyl)cyclo-pentanecarboxylic acid]",19.5 nM
11,"Nc1nccn2c(C34CCC(C(=O)O)(CC3)CC4)nc(-c3ccc(Oc4ccccc4)cc3)c12 [Example 6, 4-[8-amino-1-(4-phenoxyphenyl)imidazo[1,5-a]pyrazin-3-yl]bicyclo[2.2.2]octane-1-carboxylic acid]",0.09 nM
12,"CC(C)(C(=O)O)C1CCC(c2nc(-c3ccc(Oc4ccccc4)cc3)c3c(N)nccn23)C1 (stereo not drawn) [Example 7, 2-{3-[8-amino-1-(4-phenoxyphenyl)imidazo[1,5-a]pyrazin-3-yl]cyclopentyl}-2-methylpropanoic acid]",2.1 nM
13,"CC1(C)[C@@H](c2nc(-c3ccc(Oc4ccccc4)cc3)c3c(N)nccn23)CC[C@@]1(C)C(=O)O [Example 8, (1R,3S)-3-[8-amino-1-(4-phenoxyphenyl)imidazo [1,5-a]pyrazin-3-yl]-1,2,2-trimethylcyclopenta-carboxylic acid]",0.7 nM
14,"Nc1nccn2c([C@@H]3CCC[C@H](C(=O)O)C3)nc(-c3ccc(Oc4ccccc4)cc3)c12 [Example 9, (1S,3R)-3-[8-amino-1-(4-phenoxyphenyl)imidazo[1,5-a]pyrazin-3-yl]cyclohexanecarboxylic acid]",7.1 nM
15,"CC1(C(=O)O)CCCC(c2nc(-c3ccc(Oc4ccccc4)cc3)c3c(N)nccn23)C1 (stereo not drawn) [Example 10, 3-[8-amino-1-(4-phenoxyphenyl)imidazo [1,5-a]pyrazin-3-yl]-1-mehtylcyclohexane-carboxylic acid]",1.6 nM
16,"Nc1nccn2c1c(-c1ccc(Oc3cccc(F)c3)cc1)nc2[C@H]1CC[C@@H](C(=O)O)CC1 [Example 11, cis-4-{8-amino-1-[4-(3-fluorophenoxy)phenyl]imidazo[1,5-a]pyrazin-3-yl}cyclohexanecarboxylic acid]",14.3 nM
17,"Nc1nccn2c1c(-c1ccc(Oc3cccc(F)c3)cc1)nc2[C@H]1CC[C@H](C(=O)O)CC1 [Example 12, trans-4-{8-amino-1-[4-(3-fluorophenoxy)phenyl]imidazo[1,5-a]pyrazin-3-yl}cyclohexanecarboxylic acid]",1 nM
18,"C[C@]1(C(=O)O)CCC[C@@H](c2nc(-c3ccc(Oc4cccc(F)c4)cc3)c3c(N)nccn23)C1 [Example 13, (1S,3R)-3-{8-amino-1-[4-(3-fluorophenoxy)phenyl]imidazo[1,5-a]pyrazin-3-yl}-1-methylcyclohexanecarboxylic acid]",5.9 nM
19,"C[C@]1(C(=O)O)CCC[C@@H](c2nc(-c3ccc(Oc4ccccc4)cc3)c3c(N)nccn23)C1 [Example 14, (1S,3R)-3-[8-amino-1-(4-phenoxyphenyl)imidazo [1,5-a]pyrazin-3-yl]-1-methylcyclohexane-carboxylic acid]",2.4 nM
20,"C[C@@]1(C(=O)O)CCC[C@H](c2nc(-c3ccc(Oc4ccccc4)cc3)c3c(N)nccn23)C1 [Example 15, (1R,3S)-3-[8-amino-1-(4-phenoxyphenyl)imidazo [1,5-a]pyrazin-3-yl]-1-methylcyclohexane-carboxylic acid]",1.3 nM
21,"C[C@@]1(C(=O)O)CCC[C@H](c2nc(-c3ccc(Oc4cccc(F)c4)cc3)c3c(N)nccn23)C1 [Example 16, (1R,3S)-3-{8-amino-1-[4-(3-fluorophenoxy)phenyl]imidazo[1,5-a]pyrazin-3-yl}-1-methylcyclohexane-carboxylic acid]",3.3 nM
22,"Nc1nccn2c1c(-c1ccc(Oc3ccccc3)cc1)nc2[C@H]1CC[C@H](C(=O)O)CC1 [Example 17, trans-4-[8-amino-1-(4-phenoxyphenyl)imidazo [1,5-a]pyrazin-3-yl]cyclohexane-carboxylic acid]",0.5 nM
23,"CC1(C)[C@@H](C(=O)O)C[C@H]1c1nc(-c2ccc(Oc3ccccc3)cc2)c2c(N)nccn12 [Example 18, (1 S,3R)-3-(8-amino-1-(4-phenoxyphenyl)imidazo[1,5-a]pyrazin-3-1)-2,2-dimethylcyclobutanecarboxylic acid]",3.5 nM
24,"CCC[C@]1(C(=O)O)CCC[C@@H](c2nc(-c3ccc(Oc4ccccc4)cc3)c3c(N)nccn23)C1 [Example 19, (1S,3R)-3-[8-amino-1-(4-pheenoxyphenyl)imidazo[1,5-a]pyrazin-3-yl]-1-propylcyclohexane-carboxylic acid]",200 nM
25,"CCC[C@@]1(C(=O)O)CCC[C@@H](c2nc(-c3ccc(Oc4ccccc4)cc3)c3c(N)nccn23)C1 [Example 20, (1R,3R)-3-[8-amino-1-(4-phenoxyphenyl)imidazo[1,5-a]pyrazin-3-yl]-1-propylcyclohexane-carboxylic acid]",4.9 nM
26,"Nc1nccn2c(C34CCCC(C(=O)O)(CC3)CC4)nc(-c3ccc(Oc4ccccc4)cc3)c12 [Example 21, 5-[8-amino-1-(4-phenoxyphenyl)imidazo[1,5-a]pyrazin-3-yl]bicyclo[3.2.2] nonane-1-carboxylic acid]",0.14 nM
27,"Nc1nccn2c(C34C=CC(C(=O)O)(CC3)CC4)nc(-c3ccc(Oc4ccccc4)cc3)c12 [Example 22, 4-[8-amino-1-(4-phenoxyphenyl)imidazo[1,5-a]pyrazin-3-yl]bicyclo[2.2.2]oct-2-ene-1-carboxylic acid]",0.26 nM
